# Experimental data from patent US11542233B2, “Compounds, compositions and methods of use” (Aquinnah Pharmaceuticals, Inc., priority 2016, dated 2023).
# System: TDP-43 aggregation in PC12 cells stably expressing GFP-tagged mutant TDP-43 (TDP-43^Q33IK::eGFP)
# Assay: In vitro efficacy assay: inhibition of TDP-43 inclusions, concentration-response, fluorescence microscopy
# Type: cell-based
# Settings: Rattus norvegicus, PC-12, PC12 cells, 1 hour pre-treatment, 15 μM sodium arsenite for 23 hours, 10-point dose response curve
# Protocol: Exemplary compounds of the invention were evaluated for efficacy in inhibiting TDP-43 inclusions using a concentration-response assay. Briefly, PC12 cells stably expressing a GFP-tagged mutant form of TDP-43 (TDP-43^Q33IK::eGFP) were pre-treated for 1 hour with exemplary compounds and stressed with 15 μM sodium arsenite for 23 hours to induce TDP-43 aggregation. The inhibitory effect on TDP-43 aggregation was measured using fluorescence microscopy. The ratio of cells with TDP-43 aggregates was calculated based on the total number of cells with detectable GFP expression. In the table, “A” indicates an IC50 of less than 100 nM, “B” indicates an IC50 range from 100 nM to 500 nM; “C” indicates an IC50 range from 500 nM to 2 μM; and “D” indicates an IC50 greater than 2 μM.
row,SMILES,IC50 [nM]
1,CCN(C(=O)c1cc2cc(S(C)(=O)=O)ccc2[nH]1)[C@H]1CCC[C@@H](NCc2ccccc2)C1 [Compound 546],100 to 500
2,CCN(C(=O)c1cc2ncccc2[nH]1)[C@H]1CCC[C@@H](NCc2ccc3ncoc3c2)C1 [Compound 441],< 100
3,CCN(C(=O)c1cc2ccccc2[nH]1)[C@H]1CCC[C@@H](NCc2ccc3ocnc3c2)C1 [Compound 459],< 100
4,CCN(C(=O)c1cc2ccccc2[nH]1)[C@H]1CCC[C@@H](Nc2nnc(C)s2)C1 [Compound 500],> 2000
5,CCN(C(=O)c1cc2ncccc2[nH]1)[C@H]1CCC[C@@H](NCc2c[nH]cn2)C1 [Compound 447],100 to 500
6,O=C(c1cc2ccccc2[nH]1)N(CC(F)(F)F)[C@H]1CCC[C@@H](NCc2ccncc2)C1 [Compound 177],100 to 500
7,CCN(C(=O)c1cc2cc(C#N)ccc2[nH]1)[C@H]1CCC[C@@H](NCc2cccc(F)c2)C1 [Compound 534],< 100
8,CCN(C(=O)c1cc2ccccc2[nH]1)[C@H]1CCC[C@@H](NCc2ccc(OC(F)(F)F)cc2)C1 [Compound 429],< 100
9,CCN(C(=O)c1cc2ccccc2[nH]1)[C@H]1CCC[C@@H](N[C@H]2CCc3cc(F)ccc32)C1 [Compound 124],< 100
10,CCN(C(=O)c1cc2ncccc2[nH]1)[C@H]1CCC[C@H](NC(C)(C)c2ccc(OC)cc2)C1 [Compound 409],500 to 2000
11,CCN(C(=O)c1nc2ccccc2[nH]1)[C@H]1CCC[C@@H](NCc2cc3ccccc3o2)C1 [Compound 479],< 100
12,CCN(C(=O)c1nc2cc(C#N)ccc2[nH]1)[C@H]1CCC[C@@H](NCc2oc3ccccc3c2C)C1 [Compound 518],< 100
13,O=C(c1cc2ncccc2[nH]1)N(CC(F)(F)F)[C@H]1CCC[C@@H](NCc2ccc(F)cc2)C1 [Compound 423],< 100
14,"CCN(C(=O)c1cc2ccccc2[nH]1)[C@H]1CCC[C@@H](N[C@H](c2cncnc2)C(F)(F)F)C1 (single isomer, unassigned) [Compound 412]",100 to 500
15,"CCN(C(=O)c1cc2ccccc2[nH]1)[C@@H]1COC[C@@H](N[C@@H]2CCc3ccccc32)C1 [Compound 507, N-((3S,5S)-5-(((R)-2,3-dihydro-1H-inden-1-yl)amino)tetrahydro-2H-pyran-3-yl)-N-ethyl-1H-indole-2-carboxamide]",> 2000
16,CCN(C(=O)c1cc2ncccc2[nH]1)[C@H]1CCC[C@@H](NCc2ccnc(O)c2)C1 [Compound 434],> 2000
17,"C#CCOc1ccc(C(=O)c2ccc(CN[C@@H]3CCC[C@H](N(CC)C(=O)c4cc5ncccc5[nH]4)C3)cc2)cc1 [Compound 463, N-ethyl-N-((1S,3R)-3-((4-(4-(prop-2-yn-1-yloxy)benzoyl)benzyl)amino)cyclohexyl)-1H-pyrrolo[3,2-b]pyridine-2-carboxamide]",< 100
18,CCN(C(=O)c1nc2ccccc2[nH]1)[C@H]1CCC[C@@H](NCc2oc3ccccc3c2C)C1 [Compound 476],< 100
19,"CCN(C(=O)c1nc2ccccc2[nH]1)[C@H]1CCC[C@@H](NCc2cn3ccccc3n2)C1 [Compound 494, N-ethyl-N-((1S,3R)-3-((imidazo[1,2-a]pyridin-2-ylmethyl)amino)cyclohexyl)-1H-benzo[d]imidazole-2-carboxamide]",< 100
20,CCN(C(=O)c1cc2ccccc2[nH]1)[C@H]1CCC[C@@H](NCc2ccccn2)C1 [Compound 127],< 100

row,SMILES,IC50 [nM]
1,CCN(C(=O)c1cc2ccccc2[nH]1)[C@H]1CCC[C@@H](NCc2nnc(C)s2)C1 [Compound 454],< 100
2,CCN(C(=O)c1nc2ccccc2[nH]1)[C@H]1CCC[C@@H](NCc2oc3ccccc3c2C#N)C1 [Compound 497],< 100
3,CCN(C(=O)c1[nH]c2ccccc2c1C)[C@H]1CCC[C@@H](NCc2ccccc2)C1 [Compound 402],< 100
4,CCN(C(=O)c1nc2cc(C#N)ccc2[nH]1)[C@H]1CCC[C@@H](NCc2ccc3ocnc3c2)C1 [Compound 529],< 100
5,"C#Cc1ccc(C(=O)c2cccc(CN[C@@H]3CCC[C@H](N(CC)C(=O)c4cc5ccccc5[nH]4)C3)c2)cc1 [Compound 312, N-ethyl-N-((1S,3R)-3-((3-(4-ethynylbenzoyl)benzyl)-amino)cyclohexyl)-1H-indole-2-carboxamide]",500 to 2000
6,CCN(C(=O)c1cc2cc(F)ccc2[nH]1)[C@H]1CCC[C@@H](NCc2cccc(F)c2)C1 [Compound 549],< 100
7,CCN(C(=O)c1cc2ccccc2[nH]1)[C@H]1CCC[C@@H](NC2(c3ccccc3)CC2)C1 [Compound 419],100 to 500
8,CCN(C(=O)c1cc2cc(F)ccc2[nH]1)[C@H]1CCC[C@@H](NCc2oc3ccccc3c2C)C1 [Compound 548],< 100
9,C#CCOc1cccc(CN[C@@H]2CCC[C@H](N(CC)C(=O)c3nc4cc(N)ccc4[nH]3)C2)c1 [Compound 564],100 to 500
10,CCN(C(=O)c1ccccc1)[C@H]1CCC[C@@H](NCc2ccccc2)C1 [Compound 405],> 2000
11,CCN(C(=O)c1cc2cc(C#N)ccc2[nH]1)[C@H]1CCC[C@@H](NCc2oc3ccccc3c2C)C1 [Compound 535],< 100
12,CCN(C(=O)c1nc2ccccc2[nH]1)[C@H]1CCC[C@@H](NCc2ccc3ocnc3c2)C1 [Compound 489],< 100
13,CCN(C(=O)c1cc2ccccc2[nH]1)[C@H]1CCC[C@@H](N[C@H]2CCc3ccccc32)C1 [Compound 120],500 to 2000
14,CCN(C(=O)c1cc2ccccc2[nH]1)[C@H]1CCC[C@@H](NCc2cc(C3CC3)no2)C1 [Compound 455],< 100
15,CCN(C(=O)c1cc2ccccc2[nH]1)[C@H]1CCC[C@@H](NCc2ccnc(OC)c2)C1 [Compound 457],< 100
16,CCN(C(=O)c1cc2ccccc2[nH]1)[C@H]1CCC[C@@H](NCc2cnc(OC)nc2)C1 [Compound 132],< 100
17,CCN(C(=O)c1nc2ccccc2[nH]1)[C@H]1CCC[C@@H](NCc2ccc(OC(F)(F)F)cc2)C1 [Compound 473],< 100
18,CCN(C(=O)c1cc2ccccc2[nH]1)[C@@H]1CCC[C@@H](N[C@@H]2CCc3ccccc32)C1 [Compound 114],> 2000
19,"CCN(C(=O)c1nc2ccccc2[nH]1)[C@H]1CCC[C@@H](NCc2cc(C(F)(F)F)on2)C1 [Compound 554, N-ethyl-N-((1S,3R)-3-(((5-(trifluoromethyl)isoxazol-3-yl)methyl)amino)cyclohexyl)-1H-benzo[d]imidazole-2-carboxamide]",< 100
20,CCN(C(=O)c1nc2cc(C#N)ccc2[nH]1)[C@H]1CCC[C@@H](NCc2ccc(F)cc2)C1 [Compound 519],< 100

row,SMILES,IC50 [nM]
1,CCN(C(=O)c1cc2ccccc2[nH]1)[C@H]1CCC[C@@H](NCc2c[nH]cn2)C1 [Compound 466],> 2000
2,O=C(c1cc2ccccc2[nH]1)N(CC(F)(F)F)[C@H]1COC[C@@H](NCc2ccccc2)C1 [Compound 302],100 to 500
3,CCN(C(=O)c1nc2c(F)cccc2[nH]1)[C@H]1CCC[C@@H](NCc2ccccc2)C1 [Compound 482],< 100
4,O=C(c1cc2ccccc2[nH]1)N(CC(F)(F)F)C1CCC[C@H](NCc2cccnc2)C1 (stereo partly drawn) [Compound 174],> 2000
5,CCN(C(=O)c1cc2ncccc2[nH]1)[C@H]1CCC[C@@H](NCc2ccccc2)C1 [Compound 151],< 100
6,CCN(C(=O)c1cc2cc(F)ccc2[nH]1)[C@H]1CCC[C@@H](NCc2oc3ccccc3c2C#N)C1 [Compound 553],< 100
7,"CCN(C(=O)c1cc2ncccc2[nH]1)[C@H]1CCC[C@@H](NCc2cccc(F)c2)C1 [Compound 150, N-ethyl-N-((1S,3R)-3-((3-fluorobenzyl)amino)cyclohexyl)-1H-pyrrolo[3,2-b]pyridine-2-carboxamide]",< 100
8,"CCN(C(=O)c1cc2c([nH]1)CCCS2(=O)=O)[C@H]1CCC[C@@H](NCc2ccccc2)C1 [Compound 512, N-((1S,3R)-3-(benzylamino)cyclohexyl)-N-ethyl-1,5,6,7-tetrahydrothiopyrano[3,2-b]pyrrole-2-carboxamide 4,4-dioxide]",100 to 500
9,O=C(c1cc2ccccc2[nH]1)N(CC(F)(F)F)[C@H]1CCC[C@H](NCc2ccc(F)cc2)C1 [Compound 180],500 to 2000
10,CCN(C(=O)c1nc2cc(F)ccc2[nH]1)[C@H]1CCC[C@@H](NCc2oc3ccccc3c2C#N)C1 [compound 510],< 100
11,CCN(C(=O)c1cc2ncccc2[nH]1)[C@H]1CCC[C@@H](NCc2cnoc2)C1 [Compound 438],> 2000
12,CCN(C(=O)c1cc2ncccc2[nH]1)[C@H]1CCC[C@H](NC(C)(C)c2ccccc2)C1 [Compound 411],< 100
13,CCN(C(=O)c1cc2ccccc2[nH]1)[C@H]1CCC[C@H](NCC2CCOCC2)C1 [Compound 119],< 100
14,CCN(C(=O)c1nc2cc(C#N)ccc2[nH]1)[C@H]1CCC[C@@H](NCc2cc3ccccc3o2)C1 [Compound 517],< 100
15,CCN(C(=O)c1cc2ccccc2[nH]1)C1CCC[C@@H](NCc2ccc(F)cc2)C1 (stereo partly drawn) [Compound 111],< 100
16,CCN(C(=O)c1cc2ccccc2[nH]1)[C@H]1CCC[C@@H](N[C@H](c2ccccc2)C(F)(F)F)C1 [Compound 414],500 to 2000
17,CCN(C(=O)c1cc2ccccc2[nH]1)[C@H]1CCC[C@@H](NCCC2CC2)C1 [Compound 117],< 100
18,CCN(C(=O)c1nc2ccccc2[nH]1)[C@H]1CCC[C@@H](NCc2nc3ccccc3s2)C1 [Compound 488],< 100
19,CCN(C(=O)c1cc2ccccc2[nH]1)[C@H]1CCC[C@@H](NCc2cccc(OC(F)(F)F)c2)C1 [Compound 430],< 100
20,CCN(C(=O)c1cc2cc(C3CC3)ccc2[nH]1)[C@H]1CCC[C@@H](NCc2ccccc2)C1 [Compound 543],< 100
